The values below come from ChEMBL document CHEMBL1122409, “Estrogen receptor binding and estrogenic/antiestrogenic effects of two new metabolites of nitromiphene, 2-[p-[2-nitro-1-(4-methoxyphenyl)-2-phenylvinyl]phenoxy]-N-ethylpyrrolidine” (J Med Chem, 1983).

The target in assay [1] is T1, Estrogen receptor (Rattus norvegicus) (UniProt P06211+Q62986). Description: Displacement of [3H]estradiol from rat estrogen receptor; modest estrogenic activity. The assay is classed as protein assay. (Loss of bound radioactivity is the signal in a displacement assay; it reports binding, not function.)
The target in assay [2] is T1, Estrogen receptor (Rattus norvegicus). Description: Antagonistic effect on estradiol benzoate induced uterine weight gain in immature rats at 1E-6M. It is filed as functional. On the set-up: scale not given: the % may be the effect or the level left.
Assay [3] has the same target. Description: Displacement of [3H]estradiol from rat estrogen receptor; inactive. It is filed as protein assay.
The target is the same in assay [4]. Put plainly: Displacement of [3H]estradiol from rat estrogen receptor; increased estrogenic activity. The assay is classed as protein assay.
Assay [5] shares this target. Put plainly: Antagonistic effect against estradiol benzoate induced uterine weight gain in immature rats at 1E-6M; increased estrogenic activity. The assay is classed as functional. Details: scale not given: the % may be the effect or the level left.

The source made the active and inactive calls. The rule behind the calls is not given here.

On to `COc1ccc(/C(=C(/c2ccccc2)[N+](=O)[O-])c2ccc(OCCN3CCCC3)cc2)cc1`, for which the Activity entry in assay [1] was “Weak activity”; in assay [2], 11%.

As for `COc1ccc(C(C(=O)c2ccccc2)c2ccc(OCCN3CCCC3)cc2)cc1` (stereo not given), in assay [3], the outcome was inactive.

On to `COc1ccc(/C(=C(/c2ccccc2)[N+](=O)[O-])c2ccc(OCCN3CCCC3=O)cc2)cc1`, for which the result in assay [4] was Active. Further, the Activity in assay [5] was found to be 43%.
